Experiments:
Beagle dogs = test: Subchronic toxicity test in Beagle dogs: clinical observation; format: in vivo; settings: for Frequencies of Diarrhea / Frequencies of Vomiting: beagle, dog, in vivo, po, 42 days
Procedure: HZ1006 was administered orally to dogs (four/sex/group) at doses of 80, 40, 20, 5 and 0 (control) mg/kg/day, and the dosage volume was 2 mL/kg. The dogs received test doses with the exact amounts on a weekly basis based on current body weights. […] The other dogs in the above groups were dissected on the planned days. For the other groups, half of the dogs were anatomized on d28 and the remaining half on d42.
Clinical symptoms and mortality were examined at least twice daily during the 42-day period, which included any changes in reaction to treatment, behavior, illness, food consumption, and body weight. Breathing rates, rectal temperature and pupil changes in the Beagle dogs were assessed once every 2 weeks.

SD rats [1] = test: Subchronic toxicity test in SD rats: hematology; format: in vivo, Sprague-Dawley (SD) rats; settings: for APTT / FIB / Lym / Neu / WBC: female rats; for RET: male rats
Procedure: The rats that were judged suitable for the subchronic toxicity study were randomly divided into four groups (10 rats/sex/group). The rats received the test sample by gavage once daily for 28 days. HZ1006 was administered to the rats at doses of 120, 60, 20 and 0 (control) mg/kg, and the dosage volume was 5 mL/kg. Half of the 80 rats (half male and half female) were selected randomly according to body weight and dissected at d28. The remaining rats were dissected at […]. The following indexes were examined for the dogs used in the study, twice during the pre-dosage period and on d14, d28 and […]. The following parameters were evaluated on d28 and […] for the rats in the study: Blood samples of the animals were collected in tubes containing ethylenediamine tetraacetic acid (EDTA) and tested using an ADVIA2120 Hematology Autoanalyzer (Bayer, Leverkusen, Germany). The following indexes were examined: hemoglobin concentration (Hb), red blood cell count (RBC),mean corpuscular volume (MCV), hematocrit (HCT), mean corpuscular hemoglobin concentration (MCHC), mean corpuscular hemoglobin (MCH), white blood cell count (WBC), platelet count (Plt), WBC differential counts [neutrophilcyte (Neu), eosinophilic granulocyte (Eos), basophilic leukocyte (Bas), lymphocyte (Lym), and monocyte (Mon)] and reticulocytes (Ret). The serum coagulation times of the blood samples (1.8-mL samples were mixed with 0.2 mL sodium citrate), including prothrombin time (PT), fibrinogen (FIB), activated partial thromboplastin time (APTT), and thrombin time (TT), were tested using an MC10 plus Blood Coagulation Analyzer from Shanghai San Jose Medical Products Co., Ltd. (Shanghai, China).

SD rats [2] = test: Subchronic toxicity test in SD rats: organ weights; format: in vivo, Sprague-Dawley (SD) rats; settings: for Adrenal gland absolute weight / Brain relative weight: female rats; for Kidney relative weight / Testis absolute weight: male rats
Procedure: The rats that were judged suitable for the subchronic toxicity study were randomly divided into four groups (10 rats/sex/group). The rats received the test sample by gavage once daily for 28 days. HZ1006 was administered to the rats at doses of 120, 60, 20 and 0 (control) mg/kg, and the dosage volume was 5 mL/kg. Half of the 80 rats (half male and half female) were selected randomly according to body weight and dissected at d28. The remaining rats were dissected at […]. After euthanasia, the following organs or tissues were isolated from the dogs and rats: skin, abnormal lesions, spleen, mammary glands, jejunum, pancreas, ileum, duodenum, stomach, colon, cecum, lymph nodes, mesenteric salivary glands, liver, submandibular lymph nodes, thymus, sternum, lungs, heart, esophagus, trachea, tongue, thyroid with parathyroid gland, sciatic nerve, aorta, femurs, skeletal muscle, pituitary gland, brain, kidneys, eyes, urinary bladder, adrenal glands, uterus, ovaries, testes, epididymis and prostate. The weights of the animal organs, such as the liver, spleen, heart, thymus, brain, lungs, adrenal glands, kidneys, uterus, ovaries, epididymis and testes, were tested using an electronic balance. The organs or tissues were fixed using 10% neutral buffered formalin and were then gradient dehydrated, embedded, sectioned, and stained with routine hematoxylin-eosin prior to histopathological observations.

[3] = 20 mg/kg oral daily, d42 (recovery)
[4] = 60 mg/kg oral daily, d42 (recovery)
[5] = 120 mg/kg oral daily, d42 (recovery)

## CCCCCCCNc1cc(/C=C/C(=O)NO)ccc1OCCN(CC)CC [HZ1006]
Beagle dogs; dogs, 5-80 mg/kg/day oral, ♀6 d8 and ♀8 d10 (80 mg/kg), ♀28 d16 (40 mg/kg)
  mortality: Three dogs died during the study
Beagle dogs; female, 5 mg/kg/day
  Frequencies of Diarrhea: 0 days
  Frequencies of Vomiting: 0 days
Beagle dogs; female, 20 mg/kg/day
  Frequencies of Diarrhea: 0 days
Beagle dogs; male, 5 mg/kg/day
  Frequencies of Diarrhea: 0 days
  Frequencies of Vomiting: 0 days
Beagle dogs; male, 20 mg/kg/day
  Frequencies of Diarrhea: 0 days
SD rats [1]; 20 mg/kg oral daily, d28
  APTT: 24.3 ± 3.5 s
  FIB: 1.87 ± 0.09 g/L
  Lym: 88.38 ± 1.68%
  Neu: 8.70 ± 1.72%
  WBC: 3.17 ± 1.23 ×10^9·L^−1
  RET: 1.88 ± 0.32%
SD rats [1]; [3]
  APTT: 22.2 ± 3.0 s
  FIB: 1.62 ± 0.17 g/L
  Lym: 85.40 ± 3.85%
  Neu: 11.58 ± 4.04%
  WBC: 2.68 ± 0.63 ×10^9·L^−1
  RET: 1.92 ± 0.31%
SD rats [1]; 60 mg/kg oral daily, d28
  APTT: 23.0 ± 2.4 s
  FIB: 1.89 ± 0.06 g/L
  Lym: 84.70 ± 5.45%
  Neu: 12.08 ± 4.77%
  WBC: 2.82 ± 0.60 ×10^9·L^−1
  RET: 1.43 ± 0.22%
SD rats [1]; [4]
  APTT: 25.2 ± 1.3 s
  FIB: 1.62 ± 0.18 g/L
  Lym: 85.36 ± 6.93%
  Neu: 12.06 ± 6.70%
  WBC: 2.53 ± 0.60 ×10^9·L^−1
  RET: 1.82 ± 0.43%
SD rats [1]; 120 mg/kg oral daily, d28
  APTT: 22.6 ± 2.4 s
  FIB: 2.01 ± 0.40 g/L
  Lym: 77.22 ± 8.78%
  Neu: 19.28 ± 8.26%
  WBC: 3.95 ± 0.77 ×10^9·L^−1
  RET: 2.04 ± 0.31 %
SD rats [1]; [5]
  APTT: 25.2 ± 1.6 s
  FIB: 1.85 ± 0.12 g/L
  Lym: 85.88 ± 1.85%
  Neu: 10.76 ± 1.81%
  WBC: 3.00 ± 0.43 ×10^9·L^−1
  RET: 2.16 ± 0.22%
SD rats [2]; 20 mg/kg oral daily, d28
  Adrenal gland absolute weight: 0.081 ± 0.005 g
  Brain relative weight: 0.728 ± 0.047 g/100 g
  Kidney relative weight: 0.707 ± 0.024 g/100 g
  Testis absolute weight: 2.707 ± 0.090 g
SD rats [2]; [3]
  Adrenal gland absolute weight: 0.072 ± 0.008 g
  Brain relative weight: 0.768 ± 0.020 g/100 g
  Kidney relative weight: 0.693 ± 0.033 g/100 g
  Testis absolute weight: 2.798 ± 0.112 g
SD rats [2]; 60 mg/kg oral daily, d28
  Adrenal gland absolute weight: 0.068 ± 0.003 g
  Brain relative weight: 0.799 ± 0.062 g/100 g
  Kidney relative weight: 0.705 ± 0.039 g/100 g
  Testis absolute weight: 2.624 ± 0.170 g
SD rats [2]; [4]
  Adrenal gland absolute weight: 0.071 ± 0.012 g
  Brain relative weight: 0.768 ± 0.068 g/100 g
  Kidney relative weight: 0.687 ± 0.020 g/100 g
  Testis absolute weight: 2.787 ± 0.097 g
SD rats [2]; 120 mg/kg oral daily, d28
  Adrenal gland absolute weight: 0.066 ± 0.008 g
  Brain relative weight: 0.834 ± 0.042 g/100 g
  Kidney relative weight: 0.673 ± 0.023 g/100 g
  Testis absolute weight: 2.666 ± 0.115 g
SD rats [2]; [5]
  Adrenal gland absolute weight: 0.069 ± 0.011 g
  Brain relative weight: 0.745 ± 0.089 g/100 g
  Kidney relative weight: 0.624 ± 0.053 g/100 g
  Testis absolute weight: 2.723 ± 0.161 g

Source: publication PMC5201331, “Subchronic Toxicities of HZ1006, a Hydroxamate-Based Histone Deacetylase Inhibitor, in Beagle Dogs and Sprague-Dawley Rats” (International Journal of Environmental Research and Public …, 2016)
